Experimental data from ChEMBL document CHEMBL1125650, “Relationships between the structure of taxol analogues and their antimitotic activity” (J Med Chem, 1991).

Species on record: Sus scrofa
Assay: Ratio of the concentration leading to a 50% inhibition of the rate of pig brain microtubule disassembly to that of taxol (0.4 uM) was determined
Type: functional

| Structure (SMILES) | Ratio |
| --- | --- |
| CC(=O)O[C@@]12CO[C@@H]1C[C@H](O)[C@@]1(C)C(=O)[C@H](O)C3=C(C)[C@@H](OC(=O)CC(NC(=O)OC(C)(C)C)c4ccccc4)C[C@@](O)([C@@H](OC(=O)c4ccccc4)[C@H]21)C3(C)C (single isomer, unassigned; 10a) | 2.3 |
| CC(=O)O[C@H]1C(=O)[C@@]2(C)[C@H]([C@H](OC(=O)c3ccccc3)[C@]3(O)C[C@H](OC(=O)C(NC(=O)OC(C)(C)C)C(O)c4ccccc4)C(C)=C1C3(C)C)[C@]1(OC(C)=O)CO[C@@H]1C[C@@H]2O (stereo in doubt; 16d) | 108 |
| CC(=O)O[C@H]1C(=O)[C@@]2(C)[C@H]([C@H](OC(=O)c3ccccc3)[C@]3(O)C[C@H](OC(=O)C(NC(=O)OC(C)(C)C)C(O)c4ccccc4)C(C)=C1C3(C)C)[C@]1(OC(C)=O)CO[C@@H]1C[C@@H]2O (stereo in doubt; 16c) | 10 |
| CC(=O)O[C@H]1C(=O)[C@@]2(C)[C@H]([C@H](OC(=O)c3ccccc3)[C@]3(O)C[C@H](OC(=O)C(O)C(N)c4ccccc4)C(C)=C1C3(C)C)[C@]1(OC(C)=O)CO[C@@H]1C[C@@H]2O (some centres not stated) | 44 |
| C/C=C/C(=O)O[C@H]1C[C@@]2(O)[C@@H](OC(=O)c3ccccc3)[C@@H]3[C@]4(OC(C)=O)CO[C@@H]4C[C@H](O)[C@@]3(C)C(=O)[C@H](OC(C)=O)C(=C1C)C2(C)C | 100 |
| CC(=O)O[C@@]12CO[C@@H]1C[C@H](O)[C@@]1(C)C(=O)[C@H](O)C3=C(C)[C@@H](OC(=O)CC(NC(=O)OC(C)(C)C)c4ccccc4)C[C@@](O)([C@@H](OC(=O)c4ccccc4)[C@H]21)C3(C)C (single isomer, unassigned; 10b) | 4.1 |
| CC(=O)O[C@@]12CO[C@@H]1C[C@H](O)[C@@]1(C)C(=O)[C@H](O)C3=C(C)[C@@H](OC(=O)C(O)C(NC(=O)OC(C)(C)C)c4ccccc4)C[C@@](O)([C@@H](OC(=O)c4ccccc4)[C@H]21)C3(C)C (stereo in doubt; 13f) | 4.3 |
| CC(=O)O[C@@]12CO[C@@H]1C[C@H](O)[C@@]1(C)C(=O)[C@H](O)C3=C(C)[C@@H](OC(=O)[C@H](NC(=O)OC(C)(C)C)[C@@H](O)c4ccccc4)C[C@@](O)([C@@H](OC(=O)c4ccccc4)[C@H]21)C3(C)C | 160 |
| CC(=O)O[C@@]12CO[C@@H]1C[C@H](O)[C@@]1(C)C(=O)[C@H](O)C3=C(C)[C@@H](OC(=O)/C=C/c4ccccc4)C[C@@](O)([C@@H](OC(=O)c4ccccc4)[C@H]21)C3(C)C | 23 |
| CC(=O)O[C@@]12CO[C@@H]1C[C@H](O)[C@@]1(C)C(=O)[C@H](O)C3=C(C)[C@@H](OC(=O)CCc4ccccc4)C[C@@](O)([C@@H](OC(=O)c4ccccc4)[C@H]21)C3(C)C | 17 |
| CC(=O)O[C@H]1C(=O)[C@@]2(C)[C@H]([C@H](OC(=O)c3ccccc3)[C@]3(O)C[C@H](OC(=O)[C@@H](O)[C@H](NC(=O)OC(C)(C)C)c4ccccc4)C(C)=C1C3(C)C)[C@]1(OC(C)=O)CO[C@@H]1C[C@@H]2O | 30 |
| CC(=O)O[C@H]1C(=O)[C@]2(C)[C@@H](OC(=O)CCCC(=O)O)C[C@H]3OC[C@@]3(OC(C)=O)[C@H]2[C@H](OC(=O)c2ccccc2)[C@]2(O)C[C@H](OC(=O)C(O)C(NC(=O)c3ccccc3)c3ccccc3)C(C)=C1C2(C)C (some centres not stated) | 1 |
| CC(=O)O[C@@]12CO[C@@H]1C[C@H](O)[C@@]1(C)C(=O)[C@H](O)C3=C(C)[C@@H](OC(=O)C(NC(=O)c4ccccc4)C(O)c4ccccc4)C[C@@](O)([C@@H](OC(=O)c4ccccc4)[C@H]21)C3(C)C (stereo in doubt; 14d) | 170 |
| CC(=O)O[C@@]12CO[C@@H]1C[C@H](O)[C@@]1(C)C(=O)[C@H](O)C3=C(C)[C@@H](OC(=O)[C@@H](O)Cc4ccccc4)C[C@@](O)([C@@H](OC(=O)c4ccccc4)[C@H]21)C3(C)C | 3.5 |
| CC(=O)O[C@@]12CO[C@@H]1C[C@H](O)[C@@]1(C)C(=O)[C@H](O)C3=C(C)[C@@H](OC(=O)C(O)Cc4ccccc4)C[C@@](O)([C@@H](OC(=O)c4ccccc4)[C@H]21)C3(C)C (some centres not stated) | 4.5 |
| CC(=O)O[C@@]12CO[C@@H]1C[C@H](O)[C@@]1(C)C(=O)[C@H](O)C3=C(C)[C@@H](OC(=O)C(O)C(O)c4ccccc4)C[C@@](O)([C@@H](OC(=O)c4ccccc4)[C@H]21)C3(C)C (some centres not stated) | 3 |
| CC(=O)O[C@@]12CO[C@@H]1C[C@H](O)[C@@]1(C)C(=O)[C@H](O)C3=C(C)[C@@H](OC(=O)C(O)C(NC(=O)c4ccccc4)c4ccccc4)C[C@@](O)([C@@H](OC(=O)c4ccccc4)[C@H]21)C3(C)C (some centres not stated) | 1.3 |
| CC(=O)O[C@@]12CO[C@@H]1C[C@H](O)[C@@]1(C)C(=O)[C@H](O)C3=C(C)[C@@H](OC(=O)C(O)C(N)c4ccccc4)C[C@@](O)([C@@H](OC(=O)c4ccccc4)[C@H]21)C3(C)C (some centres not stated) | 30 |
| CC(=O)O[C@@]12CO[C@@H]1C[C@H](O)[C@@]1(C)C(=O)[C@H](O)C3=C(C)[C@@H](OC(=O)C(O)C(NC(=O)OC(C)(C)C)c4ccccc4)C[C@@](O)([C@@H](OC(=O)c4ccccc4)[C@H]21)C3(C)C (stereo in doubt; 13e) | 1.8 |
| CC(=O)O[C@@]12CO[C@@H]1C[C@H](O)[C@@]1(C)C(=O)[C@H](O)C3=C(C)[C@@H](OC(=O)C(NS(=O)(=O)c4ccc(C)cc4)C(O)c4ccccc4)C[C@@](O)([C@@H](OC(=O)c4ccccc4)[C@H]21)C3(C)C (some centres not stated) | 15 |
| CC(=O)O[C@@]12CO[C@@H]1C[C@H](OC(=O)CCCC(=O)O)[C@@]1(C)C(=O)[C@H](OC(=O)CCCC(=O)O)C3=C(C)[C@@H](OC(=O)C(O)C(NC(=O)OC(C)(C)C)c4ccccc4)C[C@@](O)([C@@H](OC(=O)c4ccccc4)[C@H]21)C3(C)C (some centres not stated) | 2 |
| CC(=O)O[C@@]12CO[C@@H]1C[C@H](OC(=O)OCC(Cl)(Cl)Cl)[C@@]1(C)C(=O)[C@H](OC(=O)OCC(Cl)(Cl)Cl)C3=C(C)[C@@H](OC(=O)/C=C/c4ccccc4)C[C@@](O)([C@@H](OC(=O)c4ccccc4)[C@H]21)C3(C)C | 1000 |
| CC(=O)O[C@@]12CO[C@@H]1C[C@H](O)[C@@]1(C)C(=O)[C@H](O)C3=C(C)[C@@H](OC(=O)[C@@H](O)[C@H](NC(=O)c4ccccc4)c4ccccc4)C[C@@](O)([C@@H](OC(=O)c4ccccc4)[C@H]21)C3(C)C | 4 |
| CC(=O)O[C@H]1C(=O)[C@@]2(C)[C@H]([C@H](OC(=O)c3ccccc3)[C@]3(O)C[C@H](OC(=O)C(O)C(C)O)C(C)=C1C3(C)C)[C@]1(OC(C)=O)CO[C@@H]1C[C@@H]2O (some centres not stated) | 60 |
| CC(=O)O[C@@]12CO[C@@H]1C[C@H](O)[C@@]1(C)C(=O)[C@H](O)C3=C(C)[C@@H](OC(=O)C(O)C(NC(=O)CCCC(=O)O)c4ccccc4)C[C@@](O)([C@@H](OC(=O)c4ccccc4)[C@H]21)C3(C)C (some centres not stated) | 1 |
| CC(=O)O[C@H]1C(=O)[C@@]2(C)[C@H]([C@H](OC(=O)c3ccccc3)[C@]3(O)C[C@H](OC(=O)[C@@H](NC(=O)c4ccccc4)[C@H](O)c4ccccc4)C(C)=C1C3(C)C)[C@]1(OC(C)=O)CO[C@@H]1C[C@@H]2O | 110 |
| CC(=O)O[C@@]12CO[C@@H]1C[C@H](O)[C@@]1(C)C(=O)[C@H](O)C3=C(C)[C@@H](OC(=O)[C@H](O)[C@@H](NS(=O)(=O)c4ccc(C)cc4)c4ccccc4)C[C@@](O)([C@@H](OC(=O)c4ccccc4)[C@H]21)C3(C)C | 5 |
